# Test results published in US20230172877A1, “METABOLITES RELEASED FROM APOPTOTIC CELLS ACT AS NOVEL TISSUE MESSENGERS” (University of Virginia Patent Foundation, priority 2020, published 2023).
# Peptide text beside a SMILES is read from it. * marks the point of attachment. Cbz = O=C(OCc1ccccc1)*; CH2F = FC*
# How the values were obtained:
# Panx1 = biological target: T1, Panx1 (Homo sapiens, UniProt Q96RD7); experiment: Panx1-dependent metabolite release from apoptotic Jurkat T cells with Panx1 inhibitors; assay type: cell-based; conditions: UV-induced apoptosis; spironolactone 50 µM, trovafloxacin 25 µM
# T1 construct: host or cells: Jurkat E6.1 T cells (wild type), apoptotic
# Experimental: Apoptosis induction. Wild type Jurkat E6.1 (ATCC) or dominant negative Pannexinl-expressing (Panxl-DN)^10 cells were resuspended in RPMI-1640 containing 1% BSA, 1% PSQ, and 10 mM HEPES and treated with 250 ng ml^-1 anti-Fas (clone CH11), 10 µM ABT-737, or exposed to 150 mJ cm^-2 ultraviolet C irradiation for 1-2 min (Stratalinker). Jurkat cells were incubated for 4 hours after apoptosis induction. For apoptosis induction in the presence of Panx1 inhibitors, Jurkat cells were treated with spironolactone (50 µM) or trovafloxacin (25 µM) in RPMI containing 1% BSA and 1% PSQ.
# For untargeted metabolomics analysis through Metabolon, recovery standards were added to samples in order to monitor QC of the analysis. Samples were methanol precipitated under shaking for 2 minutes. […] Samples were analyzed under 4 different conditions; two for analysis by two separate reverse phase (RP)/UPLC-MS/MS methods with positive ion mode ESI, one for analysis by RP/UPLC-MS/MS with negative ion mode ESI, and one for analysis by HILIC/UPLC-MS/MS with negative ion mode ESI. […]
# During the above analyses of EXAMPLE 1, it was noted that despite the many cellular metabolites detected in the pellet, only a subset is released; further, even within a known metabolic pathway, only some but not others were released. […]
# arthritis = conditions: FBP alone, reference 26; cited from earlier work
# [1] = exogenous supplementation, reference 13; cited from earlier work
# [2] = system: Jurkat cells, A549 lung epithelial cells, and HCT116 colonic epithelial cells; experiment: Apoptosis-dependent release of conserved metabolites (analytical kits) with or without caspase inhibition; assay type: cell-based, human; conditions: 50 uM zVAD pre-treatment for 10 min; UV, ABT-737, TRAIL
# Experimental: A549 cells were treated with 10 µM ABT-737 or exposed 600mJ cm^-2 and incubated for twenty-four hours. HCT-116 cells were treated with 10 µM ABT-737 or 100 ng ml^-1 TRAIL and incubated for 24 hours. All cells were pre-treated for 10 min with 50 uM zVAD prior to apoptosis induction in indicated experiments. All cells were incubated at 37° C. with 5% CO2 for indicated times.
# Metabolite detection. Spermidine detection was measured using a colorimetric kit (Cloud-Clone Corp.) via manufacturers’ protocol. Briefly, supernatants taken from cells under specified conditions were centrifuged at 1000 x g for twenty minutes. All reagents were brought to room temperature prior to use. […] 90 µl of substrate solution was added to each well and incubated for 10 minutes at 37° C. after which 50 µl of stop solution was added, the plate was mixed and immediately measure at 450 nm on a plate reader (Flex station 3). […]
# ATP was measure using a luciferase-based kit (Promega) via manufactures’ protocol. […] Luminescence was immediately measure on the Flex Station 3. […]
# Glycerol-3-phosphate and creatine were measured based on manufacturers’ protocols (Abcam). […] OD at 450 nm or fluorescence at Ex/Em 535/587 was measured for glycerol-3-phosphate and creatine, respectively.
# To test other cell types and additional apoptotic modalities, we analyzed the release of four ‘conserved metabolites’ via analytical kits. […]
# T1 sequence (Q96RD7 1-379 limits assumed): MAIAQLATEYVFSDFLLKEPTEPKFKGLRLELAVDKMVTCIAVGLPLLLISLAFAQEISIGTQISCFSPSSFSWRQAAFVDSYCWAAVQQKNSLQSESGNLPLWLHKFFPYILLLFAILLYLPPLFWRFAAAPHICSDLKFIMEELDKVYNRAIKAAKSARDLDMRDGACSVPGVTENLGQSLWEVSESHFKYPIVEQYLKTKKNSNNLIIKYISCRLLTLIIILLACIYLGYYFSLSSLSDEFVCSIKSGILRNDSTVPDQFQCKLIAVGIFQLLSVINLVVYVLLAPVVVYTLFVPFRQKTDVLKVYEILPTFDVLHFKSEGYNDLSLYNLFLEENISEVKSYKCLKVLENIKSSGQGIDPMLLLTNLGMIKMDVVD
smiles,measurement,setting,value
"CC(=O)S[C@@H]1CC2=CC(=O)CC[C@]2(C)[C@H]2CC[C@@]3(C)[C@@H](CC[C@@]34CCC(=O)O4)[C@H]12 [Spiro, spironolactone]",Apoptotic metabolites in Jurkat T cell supernatants when Panx1 was inhibited,Panx1,reduced
"N[C@@H]1[C@H]2CN(c3nc4c(cc3F)c(=O)c(C(=O)O)cn4-c3ccc(F)cc3F)C[C@@H]12 [Trovan, trovafloxacin]",Apoptotic metabolites in Jurkat T cell supernatants when Panx1 was inhibited,Panx1,reduced
"O=C(COP(=O)(O)O)[C@@H](O)[C@H](O)[C@H](O)COP(=O)(O)O [fructose 1,6-bisphosphate (FBP), fructose 1,6-bisphosphate]",Role in arthritis,arthritis,can have ameliorative roles in arthritis
NCCCCNCCCN [spermidine],Effect on inflammation and longevity,[1],can reduce inflammation and improve longevity
"COC(=O)C[C@H](NC(=O)[C@H](C)NC(=O)[C@@H](NC(=O)OCc1ccccc1)C(C)C)C(=O)CF [zVAD, zVAD-FMK] (Cbz-Val-Ala-Asp(OMe)-CH2F)",Apoptosis-dependent release of the tested metabolites with caspase inhibition,[2],attenuation
